Experimental data as given in patent US20090018111A1, “Novel Antimicrobial Medicament” (priority 2004, published 2009).
Read-outs that look alike come from different tables or passages of the source.

Tests used:
Test in all cases: Sensitivity test (agar dilution)
B. subtilis ATCC6633 = format: cell-based, Bacillus subtilis; conditions: Bacillus subtilis, B. subtilis ATCC6633
Procedure, shortened: (§1)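 Minimum inhibitory concentrations come from agar dilution in MHA, with single agents or combinations in twofold steps. Inocula: about 5 μl at about 10^6 CFU/ml. An FIC index of at most 1 marks a positive combination effect; above 1, negative.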

S. maltophilia IID1275 = format: cell-based, Stenotrophomonas maltophilia; conditions: Stenotrophomonas maltophilia, S. maltophilia IID1275
Procedure, shortened: as §1

K. pneumoniae ATCC10031 = format: cell-based, Klebsiella pneumoniae; conditions: Klebsiella pneumoniae, K. pneumoniae ATCC10031
Procedure, shortened: as §1

P. aeruginosa TL-2666 = format: cell-based, Pseudomonas aeruginosa; conditions: Pseudomonas aeruginosa, P. aeruginosa TL-2666
Procedure, shortened: as §1

P. aeruginosa IFO3451 = format: cell-based, Pseudomonas aeruginosa; conditions: Pseudomonas aeruginosa, P. aeruginosa IFO3451
Procedure, shortened: as §1

S. epidermidis IAM1296 = format: cell-based, Staphylococcus epidermidis; conditions: Staphylococcus epidermidis, S. epidermidis IAM1296
Procedure, shortened: as §1

E. faecium ATCC19434 = format: cell-based, Enterococcus faecium; conditions: Enterococcus faecium, E. faecium ATCC19434
Procedure, shortened: as §1

M. catarrhalis ATCC8176 = format: cell-based, Moraxella catarrhalis; conditions: Moraxella catarrhalis, M. catarrhalis ATCC8176
Procedure, shortened: as §1

M. catarrhalis ATCC25238 = format: cell-based, Moraxella catarrhalis; conditions: Moraxella catarrhalis, M. catarrhalis ATCC25238
Procedure, shortened: as §1

P. mirabiris GN2425 = format: cell-based, Proteus mirabilis; conditions: Proteus mirabilis, P. mirabiris GN2425
Procedure, shortened: as §1

E. aerogenes ATCC13048 = format: cell-based, Enterobacter aerogenes; conditions: Klebsiella aerogenes, E. aerogenes ATCC13048
Procedure, shortened: as §1

E. coli ML1410 = format: cell-based, Escherichia coli; conditions: Escherichia coli, E. coli ML1410
Procedure, shortened: as §1

E. coli NIHJ JC-2 = format: cell-based, Escherichia coli; conditions: Escherichia coli, E. coli NIHJ JC-2
Procedure, shortened: as §1

CC(=N)N1CC[C@H](SC2=C(C(=O)O)N3C(=O)[C@H]([C@@H](C)O)[C@H]3C2)C1 [PAPM, panipenem]
MIC (B. subtilis ATCC6633; ATCC6633, Concomitant (PAPM:SM = 1:1), read-out: MIC concomitant): ≤ 0.002 µg/mL | MIC (B. subtilis ATCC6633; ATCC6633, drug alone, read-out: MIC alone): 0.016 µg/mL | MIC (S. maltophilia IID1275; IID1275, Concomitant (PAPM:SM = 1:1), read-out: MIC concomitant): > 32 µg/mL | MIC (S. maltophilia IID1275; IID1275, drug alone, read-out: MIC alone): > 32 µg/mL | MIC (K. pneumoniae ATCC10031; ATCC10031, Concomitant (PAPM:SM = 1:1), read-out: MIC concomitant): 0.016 µg/mL | MIC (K. pneumoniae ATCC10031; ATCC10031, drug alone, read-out: MIC alone): 0.125 µg/mL | MIC (P. aeruginosa TL-2666; TL2666, Concomitant (PAPM:SM = 1:1), read-out: MIC concomitant): 8 µg/mL | MIC (P. aeruginosa TL-2666; TL2666, drug alone, read-out: MIC alone): 8 µg/mL | MIC (P. aeruginosa IFO3451; IFO3451, Concomitant (PAPM:SM = 1:1), read-out: MIC concomitant): 2 µg/mL | MIC (P. aeruginosa IFO3451; IFO3451, drug alone, read-out: MIC alone): 4 µg/mL | MIC (S. epidermidis IAM1296; IAM1296, Concomitant (PAPM:SM = 1:1), read-out: MIC concomitant): 0.016 µg/mL | MIC (S. epidermidis IAM1296; IAM1296, drug alone, read-out: MIC alone): 0.5 µg/mL | MIC (E. faecium ATCC19434; ATCC19434, Concomitant (PAPM:SM = 1:1), read-out: MIC concomitant): 0.125 µg/mL | MIC (E. faecium ATCC19434; ATCC19434, drug alone, read-out: MIC alone): 8 µg/mL | MIC (M. catarrhalis ATCC8176; ATCC8176, Concomitant (PAPM:SM = 1:1), read-out: MIC concomitant): ≤ 0.002 µg/mL | MIC (M. catarrhalis ATCC8176; ATCC8176, drug alone, read-out: MIC alone): 0.008 µg/mL | MIC (M. catarrhalis ATCC25238; ATCC25238, Concomitant (PAPM:SM = 1:1), read-out: MIC concomitant): ≤ 0.002 µg/mL | MIC (M. catarrhalis ATCC25238; ATCC25238, drug alone, read-out: MIC alone): 0.008 µg/mL | MIC (P. mirabiris GN2425; GN2425, Concomitant (PAPM:SM = 1:1), read-out: MIC concomitant): 0.125 µg/mL | MIC (P. mirabiris GN2425; GN2425, drug alone, read-out: MIC alone): 1 µg/mL | MIC (E. aerogenes ATCC13048; ATCC13048, Concomitant (PAPM:SM = 1:1), read-out: MIC concomitant): 0.25 µg/mL | MIC (E. aerogenes ATCC13048; ATCC13048, drug alone, read-out: MIC alone): 0.5 µg/mL | MIC (E. coli ML1410; ML1410, Concomitant (PAPM:SM = 1:1), read-out: MIC concomitant): 0.125 µg/mL | MIC (E. coli ML1410; ML1410, drug alone, read-out: MIC alone): 0.5 µg/mL | MIC (E. coli NIHJ JC-2; NIHJJC2, Concomitant (PAPM:SM = 1:1), read-out: MIC concomitant): 0.063 µg/mL | MIC (E. coli NIHJ JC-2; NIHJJC2, drug alone, read-out: MIC alone): 0.25 µg/mL
